How the values were obtained:
Type in all cases: in vivo
abutilon theophrasti = assay: Herbicidal activity, pot culture method (primary and secondary screening test); details: sprayed at 3-leaf stage; for inhibition ratio, Abutilon theophrasti: investigated 15 days later; for herbicidal activity inhibition ratio (%), Abutilon theophrasti: primary screening, pot culture, 150 g/ha, result 15 days later
Summary of the method: (§1)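 Post-emergence pot test: 3-leaf-stage weeds, tower spray of 0.2 g/L solution (DMF stock, water dilution) at 150 g/ha, greenhouse, inhibition (%) scored at 15 days. Secondary screen at a reduced dose.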

amaranthus retroflexus = assay: as above; details: sprayed at 3-leaf stage; for inhibition ratio, Amaranthus retroflexus: investigated 15 days later; for herbicidal activity inhibition ratio (%), Amaranthus retroflexus: primary screening, pot culture, 150 g/ha, result 15 days later
Summary of the method: as §1

digitaria sanguinalis = assay: as above; details: sprayed at 3-leaf stage; for inhibition ratio, Digitaria sanguinalis: investigated 15 days later; for herbicidal activity inhibition ratio (%), Digitaria sanguinalis: primary screening, pot culture, 150 g/ha, result 15 days later
Summary of the method: as §1

echinochloa crusgalli = assay: as above; details: sprayed at 3-leaf stage; for inhibition ratio, Echinochloa crusgalli: investigated 15 days later; for herbicidal activity inhibition ratio (%), Echinochloa crusgalli: primary screening, pot culture, 150 g/ha, result 15 days later
Summary of the method: as §1

eclipta prostrata = assay: as above; details: sprayed at 3-leaf stage; for inhibition ratio, Eclipta prostrata: investigated 15 days later; for herbicidal activity inhibition ratio (%), Eclipta prostrata: primary screening, pot culture, 150 g/ha, result 15 days later
Summary of the method: as §1

setaria viridis = assay: as above; details: for inhibition ratio, Setaria viridis / herbicidal activity inhibition ratio (%), Setaria viridis: sprayed at 3-leaf stage; for inhibition ratio, Setaria viridis: investigated 15 days later; for herbicidal activity inhibition ratio (%), Setaria viridis: primary screening, pot culture, 150 g/ha, result 15 days later
Summary of the method: as §1

maize = assay: Crop safety test (pot culture method); details: for inhibition ratio, Maize (crop safety): plants with about 4-5 leaves, investigated 15 days later
Text: (§2) This test example is for describing crop safety of the compound with a structure shown in Formula (1). Crop safety test method (pot culture method): The test targets are wheat and maize. Take flowerpots with an inner diameter of 12 cm, put composite soil (vegetable garden soil:seedling matrix=1:2, v/v) into them till ¾ of flowerpot height, directly sow the crop seeds (budding rate>85%), cover them with 0.2 cm thick soil, and keep the plants for future use when they grow to have about 4-5 leaves. Each compound is dissolved in N,N-dimethylformamide at doses of 75 g/ha or 150 g/ha and diluted with distilled water containing 0.1% tween-80 emulsifier to form 0.1 g/L (75 g/ha) solution and 0.2 g/L (150 g/ha) solution respectively. The solutions are sprayed through an automatic spray tower. After the solutions on weed leaves are dried in the air, the flowerpots are moved into a greenhouse for cultivation. The result is investigated 15 days later.

wheat = assay: Crop safety test (pot culture method); details: plants with about 4-5 leaves, investigated 15 days later
Text: as §2

| Compound | inhibition ratio, Abutilon theophrasti (abutilon theophrasti; dose 37.5 g/ha) [%] | inhibition ratio, Abutilon theophrasti (abutilon theophrasti; dose 75 g/ha) [%] | herbicidal activity inhibition ratio (%), Abutilon theophrasti (abutilon theophrasti) [%] | inhibition ratio, Amaranthus retroflexus (amaranthus retroflexus; dose 37.5 g/ha) [%] | inhibition ratio, Amaranthus retroflexus (amaranthus retroflexus; dose 75 g/ha) [%] | herbicidal activity inhibition ratio (%), Amaranthus retroflexus (amaranthus retroflexus) [%] | inhibition ratio, Digitaria sanguinalis (digitaria sanguinalis; dose 37.5 g/ha) [%] | inhibition ratio, Digitaria sanguinalis (digitaria sanguinalis; dose 75 g/ha) [%] | herbicidal activity inhibition ratio (%), Digitaria sanguinalis (digitaria sanguinalis) [%] | inhibition ratio, Echinochloa crusgalli (echinochloa crusgalli; dose 37.5 g/ha) [%] | inhibition ratio, Echinochloa crusgalli (echinochloa crusgalli; dose 75 g/ha) [%] | herbicidal activity inhibition ratio (%), Echinochloa crusgalli (echinochloa crusgalli) [%] | inhibition ratio, Eclipta prostrata (eclipta prostrata; dose 37.5 g/ha) [%] | inhibition ratio, Eclipta prostrata (eclipta prostrata; dose 75 g/ha) [%] | inhibition ratio, Setaria viridis (setaria viridis; dose 37.5 g/ha) [%] | inhibition ratio, Setaria viridis (setaria viridis; dose 75 g/ha) [%] | inhibition ratio, Maize (crop safety) (maize; dose 75 g/ha) [%] | inhibition ratio, Maize (crop safety) (maize; dose 150 g/ha) [%] | inhibition ratio, Wheat (crop safety) (wheat; dose 75 g/ha) [%] | inhibition ratio, Wheat (crop safety) (wheat; dose 150 g/ha) [%] | further results |
| --- | --- | --- | --- | --- | --- | --- | --- | --- | --- | --- | --- | --- | --- | --- | --- | --- | --- | --- | --- | --- | --- |
| CCc1ccccc1-n1c(=O)c2cc(C(=O)C3=C(O)CCCC3=O)ccc2n(C)c1=O [Compound 47] | 60 | 90 | 100 | 90 | 95 | 100 | 80 | 85 | 95 | 80 | 88 | 85 | 20 | 30 | 88 | 90 | 0 | 0 | 0 | 0 | herbicidal activity inhibition ratio (%), Eclipta prostrata (eclipta prostrata): 85%; herbicidal activity inhibition ratio (%), Setaria viridis (setaria viridis): 83%; safety to maize fields (in words) (maize; dose 150 g/ha): highly safe |
| CC(C)c1ccccc1-n1c(=O)c2cc(C(=O)C3=C(O)CCCC3=O)ccc2n(C)c1=O [Compound 65] | 50 | 70 | 98 | 50 | 60 | 90 | 30 | 40 | 100 | 95 | 100 | 80 | 30 | 50 | 80 | 85 | 0 | 10 | 0 | 10 | herbicidal activity inhibition ratio (%), Eclipta prostrata (eclipta prostrata): 80%; herbicidal activity inhibition ratio (%), Setaria viridis (setaria viridis): 98% |
| CCn1c(=O)n(-c2ccccc2C)c(=O)c2cc(C(=O)C3=C(O)CCCC3=O)ccc21 [Compound 66] | 100 | 100 | 100 | 90 | 100 | 93 | 60 | 97.5 | 95 | 100 | 100 | 100 | 95 | 100 | 97.5 | 100 | 0 | 5 | 0 | 10 | herbicidal activity inhibition ratio (%), Eclipta prostrata (eclipta prostrata): 95%; herbicidal activity inhibition ratio (%), Setaria viridis (setaria viridis): 100% |
| CCn1c(=O)n(-c2ccccc2C)c(=O)c2cc(C(=O)C3=C(O)CC(C)CC3=O)ccc21 (centres unmarked) [Compound 70] | 50 | 73 | 100 | 50 | 70 | 98 | 80 | 75 | 90 | 40 | 55 | 100 | 60 | 78 | 83 | 93 | 0 | 15 | 0 | 10 | herbicidal activity inhibition ratio (%), Eclipta prostrata (eclipta prostrata): 100%; herbicidal activity inhibition ratio (%), Setaria viridis (setaria viridis): 100% |
| Cc1c(C(=O)C2=C(O)CC(C)(C)CC2=O)ccc2c1c(=O)n(-c1ccccc1C(F)(F)F)c(=O)n2C [Compound 91] | 85 | 93 | 100 | 60 | 80 | 100 | 70 | 90 | 100 | 65 | 90 | 100 | 80 | 93 | 100 | 100 | 0 | 10 | 0 | 10 | herbicidal activity inhibition ratio (%), Eclipta prostrata (eclipta prostrata): 100%; herbicidal activity inhibition ratio (%), Setaria viridis (setaria viridis): 100% |
| CS(=O)(=O)c1ccc(C(=O)C2C(=O)CCCC2=O)c([N+](=O)[O-])c1 [Mesotrione, mesotrione, reference compound] | 100 | 100 |  | 70 | 75 |  | 40 | 70 |  | 50 | 70 |  | 75 | 85 | 0 | 0 | 7 | 15 | 10 | 40 | prevention and control of setaria viridis (in words) (setaria viridis; secondary screening, 37.5 and 75 g/ha): cannot be prevented and controlled |

Reference: patent publication US9771334B2, “Triketone compound and preparation method and use thereof” (SHANDONG CYNDA CHEMICAL CO., LTD., priority 2013, dated 2017)
